One assay concerns Akt-pS473 in U87MG cells. The conditions noted are these: Homo sapiens, U-87 MG, read-out: U87 Akt-pS473 % Inhibition or IC50, nM (IC50), U87MG cells.
The target of assay [1] is mTOR (human recombinant aa mTOR 1360-2549) (Homo sapiens (Human), UniProt P42345). In words: mTOR enzymatic test by TR-FRET (phosphorylation of GFP-4EBP1). It is filed as biochemical. An outline of the steps: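 TR-FRET detection of GFP-4EBP1 phosphorylation by a terbium-labelled anti-phospho-Thr46 antibody. Kinase reaction ran 30 min at room temperature, was quenched with EDTA (10 mM final) plus Tb-antibody (2 nM final) and left 60 min. Emission at 520 and 490 nm after 340 nm excitation, reported as the 520/490 ratio.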
mTOR (human recombinant aa mTOR 1360-2549), sequence (P42345 1360-2549): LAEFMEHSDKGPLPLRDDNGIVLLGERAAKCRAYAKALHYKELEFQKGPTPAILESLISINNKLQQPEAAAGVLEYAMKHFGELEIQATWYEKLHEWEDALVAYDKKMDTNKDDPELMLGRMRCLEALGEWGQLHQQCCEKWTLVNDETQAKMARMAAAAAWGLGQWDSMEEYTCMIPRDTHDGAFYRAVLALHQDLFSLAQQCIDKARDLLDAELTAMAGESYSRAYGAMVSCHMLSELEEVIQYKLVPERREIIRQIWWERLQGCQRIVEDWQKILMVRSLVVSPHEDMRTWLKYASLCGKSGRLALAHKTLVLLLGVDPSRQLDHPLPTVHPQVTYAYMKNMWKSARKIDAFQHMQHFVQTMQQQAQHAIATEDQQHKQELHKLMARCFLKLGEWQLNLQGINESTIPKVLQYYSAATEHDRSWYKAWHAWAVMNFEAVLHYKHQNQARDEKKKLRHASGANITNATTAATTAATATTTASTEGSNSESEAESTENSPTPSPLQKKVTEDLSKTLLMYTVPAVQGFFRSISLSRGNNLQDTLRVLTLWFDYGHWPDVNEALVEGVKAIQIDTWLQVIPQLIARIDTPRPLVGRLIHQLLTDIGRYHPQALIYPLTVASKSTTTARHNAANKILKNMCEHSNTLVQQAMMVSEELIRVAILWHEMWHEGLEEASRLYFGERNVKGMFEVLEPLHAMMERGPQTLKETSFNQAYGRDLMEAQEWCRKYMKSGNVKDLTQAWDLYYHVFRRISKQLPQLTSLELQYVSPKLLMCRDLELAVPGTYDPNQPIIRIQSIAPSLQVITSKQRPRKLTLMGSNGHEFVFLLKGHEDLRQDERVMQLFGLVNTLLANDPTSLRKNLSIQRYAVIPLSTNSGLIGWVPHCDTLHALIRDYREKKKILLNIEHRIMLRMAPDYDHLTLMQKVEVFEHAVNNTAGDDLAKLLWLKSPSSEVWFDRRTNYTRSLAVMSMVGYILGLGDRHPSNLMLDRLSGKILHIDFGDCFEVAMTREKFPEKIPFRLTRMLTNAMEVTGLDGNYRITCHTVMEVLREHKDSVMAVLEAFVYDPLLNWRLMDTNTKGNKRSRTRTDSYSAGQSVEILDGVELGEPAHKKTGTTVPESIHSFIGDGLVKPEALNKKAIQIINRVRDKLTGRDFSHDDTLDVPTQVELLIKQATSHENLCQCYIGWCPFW
For orientation: In TR-FRET formats the signal depends on donor and acceptor labels being close together.

For another assay, the target named is PI3Kα (p110α/p85α) (Homo sapiens (Human), UniProt P42336). Put plainly: PI3Kα enzymatic test by measuring the consumption of ATP. In kind it is biochemical. An outline of the steps:
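p110α/p85α (1.7 μg/ml) with 50 μM PIP2 and 2 μM ATP in pH 7.5 Tris buffer with EGTA, MgCl2, Chaps, DTT; reaction 90 min. Remaining ATP measured by luciferin/luciferase luminescence; IC50 from threefold serial dilutions spanning at least 10 000-fold.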

A further assay deals with U87MG tumour cells. In words: Test of in vitro proliferation of U87MG tumour cells. In kind it is cell-based. Particulars: Homo sapiens, U-87 MG, 72 h, U87MG cells, 72 hours; read-out: U87 Cell Proliferation IC50. The method, then: Model 4: Test of in vitro Proliferation of U87MG Tumour Cells.
The cell growth is determined with the reagent CellTiter 96 AQueous One Solution Cell Proliferation Assay from Promega (Cat. No. G3581).

Bounds are passed on as bounds.

PI3Kα (p110α/p85α), sequence (P42336 whole entry): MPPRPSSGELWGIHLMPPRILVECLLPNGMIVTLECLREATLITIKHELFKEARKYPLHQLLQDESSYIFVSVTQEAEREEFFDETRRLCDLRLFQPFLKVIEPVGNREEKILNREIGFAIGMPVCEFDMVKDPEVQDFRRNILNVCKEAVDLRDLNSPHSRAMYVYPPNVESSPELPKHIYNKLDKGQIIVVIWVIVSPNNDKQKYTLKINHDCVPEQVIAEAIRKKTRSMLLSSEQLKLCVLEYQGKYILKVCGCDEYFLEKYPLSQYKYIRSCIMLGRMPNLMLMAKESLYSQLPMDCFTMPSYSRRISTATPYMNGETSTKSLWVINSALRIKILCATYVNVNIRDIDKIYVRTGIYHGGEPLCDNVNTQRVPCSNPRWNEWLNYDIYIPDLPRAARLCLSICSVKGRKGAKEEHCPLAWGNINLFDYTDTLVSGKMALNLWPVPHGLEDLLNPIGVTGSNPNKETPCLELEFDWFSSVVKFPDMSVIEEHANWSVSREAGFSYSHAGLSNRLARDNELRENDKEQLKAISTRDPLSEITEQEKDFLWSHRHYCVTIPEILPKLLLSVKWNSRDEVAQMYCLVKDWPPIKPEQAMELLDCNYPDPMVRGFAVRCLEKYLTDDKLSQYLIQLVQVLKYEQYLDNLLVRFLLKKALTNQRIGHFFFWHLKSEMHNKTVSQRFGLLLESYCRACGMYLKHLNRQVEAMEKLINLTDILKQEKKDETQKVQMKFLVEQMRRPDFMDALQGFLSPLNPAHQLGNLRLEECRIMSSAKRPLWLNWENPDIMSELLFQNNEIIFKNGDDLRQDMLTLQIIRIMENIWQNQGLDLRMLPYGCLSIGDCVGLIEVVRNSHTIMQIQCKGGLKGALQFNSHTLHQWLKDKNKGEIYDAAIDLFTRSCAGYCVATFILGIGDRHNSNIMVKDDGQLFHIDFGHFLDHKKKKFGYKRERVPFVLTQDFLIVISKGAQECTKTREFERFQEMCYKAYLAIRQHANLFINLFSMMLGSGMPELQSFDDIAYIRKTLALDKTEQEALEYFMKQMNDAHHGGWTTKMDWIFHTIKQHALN
PI3Kα (p110α/p85α), sequence (P27986 whole entry partner): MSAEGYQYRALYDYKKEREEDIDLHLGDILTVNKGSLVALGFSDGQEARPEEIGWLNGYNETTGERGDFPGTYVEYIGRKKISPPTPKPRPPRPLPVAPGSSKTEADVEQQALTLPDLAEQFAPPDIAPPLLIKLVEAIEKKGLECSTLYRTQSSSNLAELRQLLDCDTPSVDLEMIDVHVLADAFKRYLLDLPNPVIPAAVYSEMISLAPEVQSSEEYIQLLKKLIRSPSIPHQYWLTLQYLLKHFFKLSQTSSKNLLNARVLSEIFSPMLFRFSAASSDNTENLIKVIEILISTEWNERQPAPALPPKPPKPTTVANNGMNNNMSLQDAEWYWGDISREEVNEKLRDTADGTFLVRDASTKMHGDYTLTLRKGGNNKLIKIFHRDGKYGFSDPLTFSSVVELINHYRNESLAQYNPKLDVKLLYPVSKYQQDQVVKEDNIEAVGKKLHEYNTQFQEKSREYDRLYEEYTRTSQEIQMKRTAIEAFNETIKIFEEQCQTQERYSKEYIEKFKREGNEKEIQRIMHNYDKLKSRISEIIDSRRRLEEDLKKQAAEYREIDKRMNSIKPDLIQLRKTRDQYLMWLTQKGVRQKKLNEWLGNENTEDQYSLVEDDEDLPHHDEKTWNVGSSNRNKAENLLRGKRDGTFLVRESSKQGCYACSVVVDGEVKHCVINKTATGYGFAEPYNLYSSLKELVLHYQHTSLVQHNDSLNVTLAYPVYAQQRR

Consider `CCN1CC(C)(C)Oc2nc(N3CC4CCC(C3)O4)nc(-c3ccc(NC(=O)Nc4ccon4)c(C)c3)c2C1=O` [Example 165, 1-{4-[6-Ethyl-8,8-dimethyl-2-(8-oxa-3-azabicyclo[3.2.1]oct-3-yl)-5-oxo-5,6,7,8-tetrahydro-9-oxa-1,3,6-triazabenzocyclohepten-4-yl]-2-methylphenyl}-3-isoxazol-3-ylurea], for which the IC50 worked out at 1530 nM in the assay on Akt-pS473 in U87MG cells, 180 nM in assay [1] and 4200 nM in the assay with U87MG tumour cells. Further, the “PI3Ka IC50” value on PI3Kα (p110α/p85α) was greater than 10 µM.
Regarding `CNC(=O)Nc1ccc(-c2nc(N3CCOC[C@@H]3C)nc3c2C(=O)N(CCOC)CC(C)(C)O3)cc1F` [Example 225, 1-{2-Fluoro-4-[6-(2-methoxyethyl)-8,8-dimethyl-2-((S)-3-methylmorpholin-4-yl)-5-oxo-5,6,7,8-tetrahydro-9-oxa-1,3,6-triazabenzocyclohepten-4-yl]phenyl}-3-methylurea], the IC50 with Akt-pS473 in U87MG cells turned out to be 91 nM; in assay [1], 36 nM; in the assay on U87MG tumour cells, 365 nM. Also, on PI3Kα (p110α/p85α), the “PI3Ka IC50” value came to 1.36 µM.
For `CCN1CC(C)(C)Oc2nc(N3CC4CCC(C3)O4)nc(-c3ccc(NC(=O)Nc4cncc(OC)n4)cc3)c2C1=O` [Example 28, 1-{4-[6-ethyl-8,8-dimethyl-2-(8-oxa-3-azabicyclo[3.2.1]oct-3-yl)-5-oxo-5,6,7,8-tetrahydro-9-oxa-1,3,6-triazabenzocyclohepten-4-yl]phenyl}-3-(6-methoxypyrazin-2-yl)urea] the same measures were 42 nM, 59 nM, 508 nM and greater than 10 µM.
On to `CCN1CC(C)(C)Oc2nc(N3CC4CCC(C3)O4)nc(-c3ccc(NC(=O)Nc4ccccn4)cc3F)c2C1=O` [Example 84, 1-{4-[6-Ethyl-8,8-dimethyl-2-(8-oxa-3-azabicyclo[3.2.1]oct-3-yl)-5-oxo-5,6,7,8-tetrahydro-9-oxa-1,3,6-triazabenzocyclohepten-4-yl]-3-fluorophenyl}-3-pyridin-2-ylurea], for which the IC50 in the assay on Akt-pS473 in U87MG cells is 255 nM; in assay [1], 23 nM; in the assay with U87MG tumour cells it was 760 nM. In addition, the “PI3Ka IC50” value at PI3Kα (p110α/p85α) is greater than 10 µM.
The matching figures for `CCN1CC(C)(C)Oc2nc(N3CCOC[C@@H]3C)nc(-c3ccc(NC(=O)Nc4ccc(N5CCOCC5)nc4)c(F)c3)c2C1=O` [Example 187, 1-{4-[6-Ethyl-8,8-dimethyl-2-((S)-3-methylmorpholin-4-yl)-5-oxo-5,6,7,8-tetrahydro-9-oxa-1,3,6-triazabenzocyclohepten-4-yl]-2-fluorophenyl}-3-(6-morpholin-4-ylpyridin-3-yl)urea]: 22 nM, 37 nM, 67 nM and 0.472 µM.
In the case of `CCN1CC(C)(C)Oc2nc(N3CCOC[C@@H]3C)nc(-c3ccc(NC(=O)Nc4ccc(C)nc4)c(F)c3)c2C1=O` [Example 161, 1-{4-[6-Ethyl-8,8-dimethyl-2-((S)-3-methylmorpholin-4-yl)-5-oxo-5,6,7,8-tetrahydro-9-oxa-1,3,6-triazabenzocyclohepten-4-yl]-2-fluorophenyl}-3-(6-methylpyridin-3-yl)urea], the IC50 was 9 nM in the assay on Akt-pS473 in U87MG cells, 38 nM in assay [1] and 60 nM with U87MG tumour cells. Further, at PI3Kα (p110α/p85α), the “PI3Ka IC50” value was found to be 0.321 µM.
The matching figures for `COc1ccc(NC(=O)Nc2ccc(-c3nc(N4C5CCC4COC5)nc4c3C(=O)N(C)CC(C)(C)O4)cc2)nc1` [Example 49, 1-(5-Methoxypyridin-2-yl)-3-{4-[6,8,8-trimethyl-2-(3-oxa-8-azabicyclo[3.2.1]oct-8-yl)-5-oxo-5,6,7,8-tetrahydro-9-oxa-1,3,6-triazabenzocyclohepten-4-yl]phenyl}urea]: 21 nM, 32 nM, 155 nM and greater than 10 µM.
As to `CCN1CC(C)(C)Oc2nc(N3CC4CCC(C3)O4)nc(-c3ccc(NC(=O)Nc4ccncc4F)c(F)c3)c2C1=O` [Example 76], the IC50 with Akt-pS473 in U87MG cells was 29 nM; in assay [1], 28 nM; in the assay on U87MG tumour cells it was 367 nM. The “PI3Ka IC50” value on PI3Kα (p110α/p85α) was 2.36 µM.
Turning to `Cc1ccc(NC(=O)Nc2ccc(-c3nc(N4C5CCC4COC5)nc4c3C(=O)N(C)CC(C)(C)O4)cc2)nc1` [Example 48, 1-(5-Methylpyridin-2-yl)-3-{4-[6,8,8-trimethyl-2-(3-oxa-8-azabicyclo[3.2.1]oct-8-yl)-5-oxo-5,6,7,8-tetrahydro-9-oxa-1,3,6-triazabenzocyclohepten-4-yl]phenyl}urea], the IC50 with Akt-pS473 in U87MG cells is 86 nM; in assay [1], 47 nM; with U87MG tumour cells, 185 nM. The “PI3Ka IC50” value on PI3Kα (p110α/p85α) is greater than 10 µM.
For `COc1ccc(NC(=O)Nc2ccc(-c3nc(N4CCOC[C@@H]4C)nc4c3C(=O)N(C3CCOCC3)CC(C)(C)O4)cc2F)cn1` [Example 189, 1-{4-[8,8-Dimethyl-2-((S)-3-methylmorpholin-4-yl)-5-oxo-6-(tetrahydropyran-4-yl)-5,6,7,8-tetrahydro-9-oxa-1,3,6-triazabenzocyclohepten-4-yl]-2-fluorophenyl}-3-(6-methoxypyridin-3-yl)urea] the same measures were 56 nM, 62 nM, 451 nM and 1.89 µM.
The matching figures for `CCN1CC(C)(C)Oc2nc(N3CC4CCC(C3)O4)nc(-c3ccc(NC(=O)Nc4ccnc(C)c4)c(F)c3)c2C1=O` [Example 56, 1-{4-[6-Ethyl-8,8-dimethyl-2-(8-oxa-3-azabicyclo[3.2.1]oct-3-yl)-5-oxo-5,6,7,8-tetrahydro-9-oxa-1,3,6-triazabenzocyclohepten-4-yl]-2-fluorophenyl}-3-(2-methylpyridin-4-yl)urea]: 26 nM, 41 nM, 57 nM and 3.23 µM.
The matching figures for `CCN1CC(C)(C)Oc2nc(N3CC4CCC(C3)O4)nc(-c3ccc(NC(=O)Nc4ccc(N5CCCC5)cn4)cc3)c2C1=O` [Example 25, 1-{4-[6-ethyl-8,8-dimethyl-2-(8-oxa-3-azabicyclo[3.2.1]oct-3-yl)-5-oxo-5,6,7,8-tetrahydro-9-oxa-1,3,6-triazabenzocyclohepten-4-yl]phenyl}-3-(5-pyrrolidin-1-ylpyridin-2-yl)urea]: 124 nM, 130 nM, 196 nM and greater than 10 µM.
As to `Cc1ccc(NC(=O)Nc2ccc(-c3nc(N4C5CCC4COC5)nc4c3C(=O)N(C)CC(C)(C)O4)cc2F)cn1` [Example 67, 1-{2-Fluoro-4-[6,8,8-trimethyl-2-(3-oxa-8-azabicyclo[3.2.1]oct-8-yl)-5-oxo-5,6,7,8-tetrahydro-9-oxa-1,3,6-triazabenzocyclohepten-4-yl]phenyl}-3-(6-methylpyridin-3-yl)urea], the figures for the IC50 (in the assay on Akt-pS473 in U87MG cells; in assay [1]; with U87MG tumour cells) were 20 nM, 15 nM and 69 nM, respectively. Also, the “PI3Ka IC50” value on PI3Kα (p110α/p85α) was greater than 10 µM.
As for `CCN1CC(C)(C)Oc2nc(N3CCOC[C@@H]3C)nc(-c3ccc(NC(=O)NC4CC4)c(F)c3)c2C1=O` [Example 150, 1-Cyclopropyl-3-{4-[6-ethyl-8,8-dimethyl-2-((S)-3-methylmorpholin-4-yl)-5-oxo-5,6,7,8-tetrahydro-9-oxa-1,3,6-triazabenzocyclohepten-4-yl]-2-fluorophenyl}urea], the IC50 in the assay with Akt-pS473 in U87MG cells came out at 73 nM; in assay [1], 40 nM; in the assay on U87MG tumour cells, 201 nM. The “PI3Ka IC50” value at PI3Kα (p110α/p85α) is 5.8 µM.

The values are drawn from patent publication US9120812B2, “Pyrimidooxazocine derivatives as mTOR-inhibitors” (SANOFI, priority 2012, dated 2015).
